Test results reported in DBAASP.
In brackets after ≈: the same amount, converted by molar mass. Values belong to the molecule of their own block, whether it stands above or below them.

How the values were obtained:
Test in all cases: ≥ marks a high value that may be exact or a test limit, other limits are often not marked, values filed in µg/mL are converted to µM
[1] = test system: Cronobacter sakazakii ATCC BAA-894
[2] = test system: Escherichia coli NCIMB 11843
[3] = test system: Escherichia coli O157:H7
[4] = test system: Staphylococcus aureus RN4220
[5] = test system: Cronobacter sakazakii DSM 4485
[6] = test system: Listeria monocytogenes NCTC 11994
[7] = test system: Pseudomonas putida ATCC 49128
[8] = test system: Cronobacter muytjensii ATCC 51329
[9] = test system: Staphylococcus aureus RF122
[10] = test system: Escherichia coli O111
[11] = test system: Pseudomonas fluorescens NCIMB 9046
[12] = test system: Cronobacter sakazakii DPC 6440
[13] = test system: Klebsiella pneumoniae NCIMB 13218
[14] = test system: Staphylococcus aureus NCTC 8325-4
[15] = test system: Staphylococcus aureus Newman
[16] = test system: Salmonella enterica subsp. enterica serovar Typhimurium DT104
[17] = test system: Staphylococcus aureus SA113
[18] = test system: Staphylococcus aureus NCTC 7428
[19] = test system: Salmonella enterica subsp. enterica serovar Typhimurium LT2
[20] = test system: Escherichia coli K-12
[21] = test system: Escherichia coli ATCC 25922
[22] = test system: Pseudomonas aeruginosa ATCC 27853
[23] = test system: Staphylococcus aureus JE2
[24] = test system: Candida albicans ATCC 90028
[25] = test system: Cryptococcus neoformans var. grubii H99
[26] = test system: Staphylococcus aureus ATCC 43300
[27] = test system: Acinetobacter baumannii ATCC 19606
[28] = test system: Klebsiella pneumoniae ATCC 700603
[29] = test system: Acinetobacter baumannii
[30] = test system: Klebsiella pneumoniae ATCC 13883
[31] = test system: Staphylococcus aureus ATCC 25923
[32] = test system: Enterococcus faecalis ATCC 19433
[33] = test system: Pseudomonas aeruginosa H1001
[34] = test system: Staphylococcus aureus ATCC 12600
[35] = test system: Escherichia coli BL21
[36] = test system: Enterobacter cloacae
[37] = test system: Escherichia coli KpC+001812446
[38] = test system: Staphylococcus aureus
[39] = test system: Pseudomonas aeruginosa PA14
[40] = test system: Pseudomonas aeruginosa PAO1
[41] = test system: Klebsiella pneumoniae KpC+001825971
[42] = test system: Bibersteinia trehalosi
[43] = test system: Salmonella enterica subsp. arizonae
[44] = test system: Mannheimia haemolytica Serovar 2
[45] = test system: Aspergillus fumigatus
[46] = test system: Corynebacterium pseudotuberculosis ATCC 19410
[47] = test system: Klebsiella pneumoniae
[48] = test system: Pasteurella multocida
[49] = test system: Mannheimia haemolytica Serovar 6
[50] = test system: Mannheimia haemolytica Serovar 1
[51] = test system: Staphylococcus epidermidis ATCC 1435
[52] = test system: Pseudomonas aeruginosa ATCC 10662

Compound: CC[C@H](C)[C@H](N)C(=O)N[C@@H](CCCCN)C(=O)N[C@@H](Cc1cnc[nH]1)C(=O)N[C@@H](CCC(N)=O)C(=O)NCC(=O)N[C@@H](CC(C)C)C(=O)N1CCC[C@H]1C(=O)N[C@@H](CCC(N)=O)C(=O)N[C@@H](CCC(=O)O)C(=O)O [IKHQGLPQE]
MIC [1]: ≥ 625 µM
MIC [2]: ≥ 1250 µM
MIC [3]: ≥ 1910 µM
MIC [4]: ≥ 1250 µM
MIC [5]: ≥ 625 µM
MIC [6]: ≥ 953 µM
MIC [7]: ≥ 953 µM
MIC [8]: ≥ 625 µM
MIC [9]: ≥ 1250 µM
MIC [10]: ≥ 1910 µM
MIC [11]: ≥ 1250 µM
MIC [12]: ≥ 625 µM
MIC [13]: ≥ 1250 µM
MIC [14]: ≥ 1250 µM
MIC [15]: ≥ 1250 µM
MIC [16]: ≥ 1910 µM
MIC [17]: ≥ 1250 µM
MIC [18]: ≥ 1910 µM
MIC [19]: ≥ 1250 µM

Compound: CC[C@H](C)[C@H](NC(=O)CNC(=O)[C@H](CCCN=C(N)N)NC(=O)[C@H](Cc1ccccc1)NC(=O)[C@@H](NC(=O)[C@H](Cc1cnc[nH]1)NC(=O)[C@H](Cc1cnc[nH]1)NC(=O)[C@H](Cc1ccccc1)NC(=O)[C@@H](N)Cc1ccccc1)[C@@H](C)CC)C(=O)N[C@H](C(=O)N[C@@H](Cc1cnc[nH]1)C(=O)N[C@H](C(=O)NCC(=O)N[C@@H](CCCCN)C(=O)N[C@H](C(=O)N[C@@H](CCCCN)C(=O)N[C@@H](Cc1cnc[nH]1)C(=O)N[C@@H](CCCN=C(N)N)C(=O)N[C@@H](CC(C)C)C(=O)N[C@H](C(=O)N[C@H](C(=O)NCC(N)=O)[C@@H](C)O)C(C)C)[C@@H](C)O)C(C)C)C(C)C [FFHHIFRGIVHVGKTKHRLVTG]
MIC [29]: 1.2 µM (≈ 3.1 µg/mL)
MIC [21]: 1.2 µM (≈ 3.1 µg/mL)
MIC [51]: 1.2 µM (≈ 3.1 µg/mL)
MIC [31]: 2.4 µM (≈ 6.2 µg/mL)
MIC [38]: 2.4 µM (≈ 6.2 µg/mL)
MIC [52]: 9.66 µM (≈ 25 µg/mL)

Second part, led by results:

MIC [20]: 19.5 µM (≈ 32 µg/mL)
MIC [21]: > 19.5 µM
MIC [22]: > 19.5 µM
MIC [23]: 9.73 µM (≈ 16 µg/mL)
MIC [24]: 19.5 µM (≈ 32 µg/mL)
MIC [25]: 9.73 µM (≈ 16 µg/mL)
MIC [26]: 9.73 µM (≈ 16 µg/mL)
MIC [27]: 19.5 µM (≈ 32 µg/mL)
MIC [28]: > 19.5 µM
Compound: CC[C@H](C)[C@H](NC(=O)[C@@H](NC(=O)[C@H](CO)NC(=O)[C@H](C)NC(=O)[C@@H](NC(=O)[C@H](CCCCN)NC(=O)[C@H](CCCN=C(N)N)NC(=O)[C@@H](NC(=O)[C@@H](NC(=O)[C@H](CC(=O)O)NC(=O)[C@H](Cc1ccccc1)NC(=O)[C@H](CC(C)C)NC(=O)CN)C(C)C)[C@@H](C)CC)C(C)C)C(C)C)C(=O)NCC(=O)NCC(=O)N[C@@H](CC(C)C)C(=O)O [GLFDVIRKVASVIGGL]

MIC [29]: ≥ 32 µM
MIC [30]: ≥ 32 µM
MIC [21]: 16 µM (≈ 19.9 µg/mL)
MIC [22]: > 32 µM
MIC [31]: > 32 µM
MIC [32]: 5.66 µM (≈ 7.04 µg/mL)
MIC [33]: 20 µM (≈ 24.9 µg/mL)
MIC [34]: ≥ 32 µM
MIC [35]: 4 µM (≈ 4.98 µg/mL)
MIC [36]: ≥ 32 µM
MIC [37]: 22.6 µM (≈ 28.2 µg/mL)
MIC [38]: > 32 µM
MIC [39]: ≥ 32 µM
MIC [40]: 32 µM (≈ 39.8 µg/mL)
MIC [41]: ≥ 32 µM
Compound: CC[C@H](C)[C@H](NC(=O)[C@H](CCCCN)NC(=O)[C@H](CC(C)C)NC(=O)[C@H](CCCN=C(N)N)NC(=O)[C@H](CC(C)C)NC(=O)[C@H](CCCCN)NC(=O)[C@@H](N)CCCCN)C(=O)N[C@@H](C)C(=O)N[C@@H](Cc1ccccc1)C(=O)N[C@@H](CCCCN)C(=O)O [KKLRLKIAFK]

MIC [42]: 11.1 µM (≈ 20 µg/mL)
MIC [43]: 11.1 µM (≈ 20 µg/mL)
MIC [45]: 18.5 µM (≈ 33.3 µg/mL)
MIC [46]: 11.1 µM (≈ 20 µg/mL)
MIC [47]: > 11.1 µM
MIC [48]: 5.55 µM (≈ 10 µg/mL)
MIC [38]: > 11.1 µM
MIC [40]: 1.83 µM (≈ 3.3 µg/mL)
Compound: CC[C@H](C)[C@H](NC(=O)[C@H](Cc1cnc[nH]1)NC(=O)[C@@H](NC(=O)[C@@H](NC(=O)[C@H](CCCCN)NC(=O)[C@H](CCCN=C(N)N)NC(=O)[C@@H](NC(=O)[C@@H](NC(=O)[C@H](CCCN=C(N)N)NC(=O)[C@H](CCCN=C(N)N)NC(=O)[C@@H](N)CC(C)C)[C@@H](C)CC)[C@@H](C)CC)[C@@H](C)CC)[C@@H](C)CC)C(=O)N[C@H](C(=O)N[C@@H](CCCCN)C(=O)N[C@@H](CCCCN)C(=O)O)[C@@H](C)CC [LRRIIRKIIHIIKK]
MIC [44]: 3.72 µM (≈ 6.7 µg/mL)
MIC [49]: 9.28 µM (≈ 16.7 µg/mL)
MIC [50]: 2.78 µM (≈ 5 µg/mL)
